{"source": "patent US20240350402A1", "about": "“TOPICAL DRUG TREATMENT TO PREVENT OR REDUCE CORNEAL SCARRING” (The Cleveland Clinic Foundation, priority 2021, published 2024)", "key": {"[1]": {"system": "rabbit corneas after alkali burn injury", "experiment": "Alkali burn model: slit lamp opacity area and intensity (ImageJ)", "assay_type": "in vivo", "settings": "alkali burn 1N NaOH; topical six times per day, one month; 0.8 mg/ml losartan, 1% prednisolone acetate", "procedure": "All animal treatments and care were approved by the Institutional Animal Care and Use Committee (IACUC) at the Cleveland Clinic Foundation (Cleveland, OH, USA) and the Animal Care and Use Review Office of the Department of the Army (Fort Detrick, MD). All rabbits were treated in accordance with the tenets of the ARVO Statement for the Use of Animals in Ophthalmic and Vision Research. Sixteen 10- to 15-week-old female New Zealand White rabbits weighing 2.5 to 3.0 kg each were included in this example. […]\nAt one month after sodium hydroxide exposure and treatments, with the rabbits under ketamine-xylazine general anesthesia, the eyes were dilated with two drops of 1% tropicamide (Akom Co., Lake Forest, IL) for thirty minutes. […] For each study eye, the total area of opacity was determined by outlining the opacity with the freehand selection tool using ImageJ 1.53a analysis software calibrated to mm^2. The “raw internal density” in pixels for the opacified area in each cornea was also determined using ImageJ. […]"}, "[2]": {"system": "corneal neovascularization (CNV)", "experiment": "Alkali burn model: central corneal neovascularization (corneal angiography)", "assay_type": "in vivo, rabbit", "settings": "four corneas in each group, topical six times per day, one month", "procedure": "(§1) Alkali injuries were produced in one eye of rabbits with previously published methods^10 using 1N sodium hydroxide (Sigma, St. Louis, MO) in balanced salt solution (BSS, 0.64% sodium chloride, 0.075% potassium chloride, 0.048% calcium chloride dihydrate, […] magnesium chloride hexahydrate, 0.39% sodium acetate trihydrate, 0.17% sodium citrate dihydrate, pH 7.5, Alcon, H. Worth, TX) and a 5 mm diameter circular Whatman No. 1 filter paper (Cat #1001-6508, Fisher Scientific) wetted with 100 μl of 1N NaOH solution. Following the alkali burn injury, the cornea was irrigated profusely with BSS. Each injured cornea also received one drop of ciprofloxacin (Alcon, Ft. Worth, TX, USA) ten minutes after surgery and four times a day for one week and at least 15 minutes apart from the study medications.\nWorth TX), at least 5 minutes apart, or 4) 50 μl of BSS.\nAll corneas had fluorescent angiography at the peak of dye passage in the cornea immediately after injection of 1.5 ml of 10% sodium fluorescein (McKesson, Irvine, TX) in the central ear vein with the slit lamp system and digital camera system using a “barrier filter” that only transmitted 520-530 nm, the peak of fluorescein emission, with broad illumination of the cornea, as previously described.^11"}, "[3]": {"system": "α-SMA-positive myofibroblasts", "experiment": "Alkali burn model: IHC α-SMA-positive stromal area and intensity (ImageJ)", "assay_type": "in vivo, rabbit", "settings": "topical six times per day, one month", "procedure": "as §1\nWorth TX), at least 5 minutes apart, or 4) 50 μl of BSS. […]\nThe area of the α-SMA-positive stroma in mm^2 and the total α-SMA opacity in pixels were quantitated using standardized images obtained with a 10× objective on a Leica DM6B upright microscope equipped with an automated stage and Leica 7000 T camera using the LAS X software (Leica Microsystems, GmbH, Wetzlar, Germany). The means of three central corneal sections were analyzed from each cornea to provide the area of α-SMA-positive stroma and the total α-SMA opacity. The area of α-SMA-positive stroma in mm^2 for each cornea was determined from full diameter and thickness central corneal section images (all converted to 300 DPI, 885 width×500 height, files with identical +50% brightness increase in Photoshop for all images) with the ImageJ 1.53a analysis software using the freehand selection tool to delineate the area(s) of α-SMA-positive staining. […] In these same sections for each cornea, the total α-SMA-positive intensity in pixels was also determined with ImageJ, similarly by using the summation if separate α-SMA-positive areas were present. […]"}, "collagen type IV": {"system": "collagen type IV", "experiment": "Alkali burn model: IHC collagen type IV intensity in anterior and posterior stroma (ImageJ)", "assay_type": "in vivo, rabbit", "settings": "one month", "procedure": "Worth, TX) and a 5 mm diameter circular Whatman No. 1 filter paper (Cat #1001-6508, Fisher Scientific) wetted with 100 μl of 1N NaOH solution. Following the alkali burn injury, the cornea was irrigated profusely with BSS. Each injured cornea also received one drop of ciprofloxacin (Alcon, Ft. Worth, TX, USA) ten minutes after surgery and four times a day for one week and at least 15 minutes apart from the study medications. […] Worth TX), at least 5 minutes apart, or 4) 50 μl of BSS. Multiplex immunohistochemistry (IHC) was performed using previously described methods^8 and primary antibodies (Table 7) confirmed by western blotting and IHC to recognize rabbit antigens or isotypic control antibodies (Thermo Fisher Scientific, Waltham, MA), and secondary fluorescent tagged antibodies (Table 7). The collagen type IV antibody (Cat. #AB769, Millipore, Temecula CA) was raised against purified human and bovine collagen type IV that had been affinity purified with human and bovine collagen type IV crosslinked to agarose and cross-absorbed by the manufacturer with human and bovine collagens type I, II, III, V and VI to eliminate cross-reactivity. This collagen type IV antibody was shown previously to bind rabbit collagen IV in IHC,^8,9 and recognizes the alpha-1/alpha-2 chains but not the alpha-3 to alpha-6 chains. The keratocan antibody is raised against peptide […]-OH (SEQ ID NO:1). This marker was used to identify keratocytes in situ. […] All corneas in each group had IHC for collagen type IV. Images from each cornea were converted to uniform 300 DPI, 875×568 pixel, files. […] The staining intensity within each box was determined with the analyze histogram function and the mean of three boxes was the intensity value in the anterior or posterior stroma for that cornea."}}}
{"compound": "CC(=O)OCC(=O)[C@@]1(O)CC[C@H]2[C@@H]3CCC4=CC(=O)C=C[C@]4(C)[C@H]3[C@@H](O)C[C@@]21C", "note": "[Prednisolone acetate, prednisolone acetate]", "values": [{"measurement": "total opacity intensity in pixels (ImageJ) vs BSS vehicle group", "setting": "[1]", "value": "did not reach statistical significance"}, {"measurement": "corneas in which central corneal neovascularization developed", "setting": "[2]", "value": "one"}, {"measurement": "localization of α-SMA-positive myofibroblasts in the stroma", "setting": "[3]", "value": "more variable"}, {"measurement": "mean intensity units of collagen type IV in the anterior stroma compared to vehicle treatment", "setting": "collagen type IV", "value": "trend towards a decrease"}]}
